According to patent US7067290B2, “Method for production of polyketides” (Kosan Biosciences Incorporated, priority 2002, dated 2006):

Experiment: pH stability of triketide lactones in fermentation supernatant
Format: physicochemical
Conditions: pH values above 6–8 (FIG. 1)
Procedure: Samples were centrifuged to remove cells and insoluble media components. If necessary, supernatants were diluted in 1:1 acetonitrile-water with 0.1% acetic acid. Samples were analyzed by HPLC-MS/MS, quantitating by comparison with an internal analytical standard of 2,4-dimethyl-3-hydroxyoctanoic acid δ-lactone (“P-TKL”). In cases where the purity of the analytic standard was doubtful, titers were renorted as arbitrary units. Samples were injected onto a C18 reversed-phase HPLC column and eluted with a gradient of acetonitrile in water containing 0.1% formic acid. Triketide lactones were detected using multiple reaction monitoring of the following MS/MS transitions: TKL: m/z 173 to 109; CM-TKL: m/z 193 to 119; V-TKL: m/z 171 to 107; and P-TKL: m/z 181 to 123.
To test the stability of CM-TKL and V-TKL in fermentation supernatant, the following experiment was undertaken. Supernatant from flask cultures was collected at the end of an experiment by centrifugation at 2700×g for 20 minutes. The supernatant was divided into four portions. The pH of the control portion was adjusted to 3.5, and that sample was frozen at −20° C. […] The samples were incubated for 18 hours at 30° C. then analyzed for product as described previously with the data reported as percent of the control.

stability in fermentation broth | SMILES
unstable | C[C@@H]1[C@H](O)[C@@H](C)C(=O)O[C@@H]1CCl [CM-TKL]
unstable | C=C[C@H]1OC(=O)[C@H](C)[C@@H](O)[C@H]1C [V-TKL]
